Assay results as given in patent US10626106B2, “Substituted pyrrolidine amides I” (Gruenenthal GmbH, priority 2017, dated 2020).
Where two headings read alike, the source gives them in different places.

Biological target: T1, Human Glucocorticoid Receptor (hGR) (Homo sapiens, UniProt P04150)
T1 construct: the resultant supernatant (=cytosol of IM9 cells) was centrifuged at 103,000 g for 60 minutes; host or cells: IM9 human lymphoblast cell line (cytosol fraction)
T1 sequence (P04150 1-777): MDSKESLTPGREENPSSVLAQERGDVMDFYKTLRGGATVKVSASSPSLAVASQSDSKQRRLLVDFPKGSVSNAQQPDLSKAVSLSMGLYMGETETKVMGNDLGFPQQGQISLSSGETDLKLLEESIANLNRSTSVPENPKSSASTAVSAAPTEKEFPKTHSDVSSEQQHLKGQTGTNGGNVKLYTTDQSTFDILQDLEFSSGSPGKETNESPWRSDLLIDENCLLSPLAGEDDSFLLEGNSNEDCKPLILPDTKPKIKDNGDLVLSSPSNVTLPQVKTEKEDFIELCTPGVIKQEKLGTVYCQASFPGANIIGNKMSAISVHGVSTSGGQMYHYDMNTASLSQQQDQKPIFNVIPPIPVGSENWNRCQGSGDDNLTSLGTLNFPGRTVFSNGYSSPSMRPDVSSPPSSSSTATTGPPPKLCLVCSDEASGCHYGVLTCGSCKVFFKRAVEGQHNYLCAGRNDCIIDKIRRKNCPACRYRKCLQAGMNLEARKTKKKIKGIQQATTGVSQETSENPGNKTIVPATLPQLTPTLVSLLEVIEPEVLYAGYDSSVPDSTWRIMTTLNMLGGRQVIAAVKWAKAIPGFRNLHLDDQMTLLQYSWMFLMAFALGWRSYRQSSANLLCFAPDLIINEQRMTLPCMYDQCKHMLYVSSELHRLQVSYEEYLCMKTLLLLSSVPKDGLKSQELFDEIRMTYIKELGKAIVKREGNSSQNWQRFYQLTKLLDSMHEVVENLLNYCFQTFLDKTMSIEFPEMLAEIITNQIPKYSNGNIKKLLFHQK
Assay: Human Glucocorticoid Receptor (hGR) Ligand-Binding Assay (competitive 3H-dexamethasone binding, IM9 cytosol)
Settings: read-out: % inhibition hGR at 1 μM
From the text: Human Glucocorticoid Receptor (hGR) Ligand-Binding Assay
Potential selective glucocorticoid receptor modulators of this intervention can be tested for their binding affinity at the glucocorticoid receptor using the binding assay described below.
Preferably, the glucocortitcoid receptor extracted from cytosol of IM9 cells is used for competitive radioligand binding assays to calculate the IC50 values and binding affinity (Ki value) of the compounds according to the present invention. Preferably, a fixed concentration of the radioligand 3H-dexamethasone and a range of concentrations of compounds according to the present invention (as unlabeled competitors of dexamethasone) are mixed with the extracted glucocorticoid receptor in order to measure the potency/affinity with which they compete for the binding of the radioligand. Preferably, by using competition curves the IC50 which is the concentration of competing ligand that displaces 50% of the specific binding of the radioligand is determined. Finally this IC50 value is converted to a Ki value.
The human lymphoblast cell line IM9 (ATCC, Bethesda, Md.) were cultivated in RPMI 1640 media containing 10% fetal bovine serum, penicillin (100 U/ml), streptomycin (100 μg/ml), and 2 mM L-glutamine at […] and 7% CO2 in a humidified incubator. Cells were centrifuged for 10 minutes at 1500 g and were washed in PBS and repelleted. Cell were then resuspended in homogenization buffer consisting of: 10 mM TES, 10 mM sodium molybdate, 1 mM EDTA, pH 7.4, 20 mM 2-mercaptoethanol, and 10% glycerol. Disruption of the cells was performed by nitrogen cavitation using 2×15 minutes at 600 to 750 psi nitrogen in a N2 cavitator at 0° C. The cell preparation was then centrifuged at 27,000 g for 15 minutes, and the resultant supernatant (=cytosol of IM9 cells) was centrifuged at 103,000 g for 60 minutes at 4° C. The amount of protein in the supernatant fraction was determined using a BCA assay kit and aliquots were snap frozen in a dry ice-acetone bath and stored at −70° C. Competitive binding assays were done in duplicate in homogenization buffer with a total volume of 200 μl. To this end, 1 mg of IM9 cytosol, 0.05 μCi (1.5 nM) of 3H-dexamethasone […] and compounds according to the present invention (=unlabeled competitors of dexamethasone; range of concentrations) were mixed. The reaction was stopped after incubation at 0° C. for 16 to 18 hours by the addition of 100 μl of a charcoal-dextran mixture (2% activated charcoal, 0.5% dextran in 10 mM Tris, 1 mM EDTA, pH 7.4). Another incubation step at 0° C. for 10 minutes followed before the samples were centrifuged for 5 minutes at 8200 g. 100 μl of the supernatant) was finally assayed for radioactivity by liquid scintillationspectrometry, and the IC50 values were determined graphically and were converted to Ki values.

[1] = compound at 1 μM, competition with 3H-dexamethasone, cytosol of IM9 cells

Row | SMILES | inhibition at 1 µM [1] [%] | inhibition at 1 µM [%]
1 | Cc1cnc(C(=O)N[C@H]2CC(=O)N(c3ccc4c(cnn4-c4ccc(=O)n(C)c4)c3)[C@@H]2c2ccccc2)s1 (relative stereo) [Example 13, 5-methyl-N-(trans-1-(1-(1-methyl-6-oxo-1,6-dihydropyridin-3-yl)-1H-indazol-5-yl)-5-oxo-2-phenylpyrrolidin-3-yl)thiazole-2-carboxamide] | > 85 | 
2 | COc1ccc(Cn2ncc3cc(N4C(=O)C[C@H](NC(=O)C(C)(F)F)[C@H]4c4ccccc4)ccc32)cn1 (relative stereo) [Example 33, trans-2,2-difluoro-N-(1-(1-((6-methoxypyridin-3-yl)methyl)-1H-indazol-5-yl)-5-oxo-2-phenylpyrrolidin-3-yl)propanamide] | > 85 | 
3 | Cn1cc(-n2ncc3cc(N4C(=O)C[C@H](NC(=O)C(C)(F)F)C4c4ccc(F)cc4F)ccc32)ccc1=O (stereo in doubt) [Example 2, trans-2,2-difluoro-N-(5-oxo-2-(2,4-difluorophenyl)-1-(1-(1-methyl-6-oxo-1,6-dihydropyridin-3-yl)-1H-indazol-5-yl)pyrrolidin-3-yl)propanamide] | > 85 | 
4 | Cn1cc(-n2ncc3cc(N4C(=O)C[C@H](NC(=O)C(C)(F)F)C4c4ccc5c(c4)OCCO5)ccc32)ccc1=O (stereo in doubt) [Example 3, trans-2,2-difluoro-N-(5-oxo-2-(2,3-dihydrobenzo[b][1,4]dioxin-6-yl)-1-(1-(1-methyl-6-oxo-1,6-dihydropyridin-3-yl)-1H-indazol-5-yl)pyrrolidin-3-yl)propanamide] | > 85 | 
5 | CC(F)(F)C(=O)N[C@H]1CC(=O)N(c2ccc3c(cnn3-c3cccnc3)c2)C1c1ccccc1 (stereo in doubt) [Example 7, trans-2,2-difluoro-N-(5-oxo-2-phenyl-1-(1-(pyridin-3-yl)-1H-indazol-5-yl)pyrrolidin-3-yl)propanamide] |  | > 85
6 | CC(F)(F)C(=O)N[C@H]1CC(=O)N(c2ccc3c(cnn3-c3ccc(F)cn3)c2)C1c1ccccc1 (stereo in doubt) [Example 9, trans-2,2-difluoro-N-(1-(1-(5-fluoropyridin-2-yl)-1H-indazol-5-yl)-5-oxo-2-phenylpyrrolidin-3-yl)propanamide] |  | > 85
7 | COc1ccc(-n2ncc3cc(N4C(=O)C[C@H](NC(=O)C(C)(F)F)C4c4ccccc4)ccc32)cn1 (stereo in doubt) [Example 22, trans-2,2-difluoro-N-(1-(1-(6-methoxypyridin-3-yl)-1H-indazol-5-yl)-5-oxo-2-phenylpyrrolidin-3-yl)propanamide] | 60 to 85 | 
8 | CC(F)(F)C(=O)N[C@H]1CC(=O)N(c2ccc3c(cnn3-c3ccncc3)c2)C1c1ccccc1 (stereo in doubt) [Example 23, trans-2,2-difluoro-N-(5-oxo-2-phenyl-1-(1-(pyridin-4-yl)-1H-indazol-5-yl)pyrrolidin-3-yl)propanamide] |  | > 85
9 | Cc1ccc(-n2ncc3cc(N4C(=O)C[C@H](NC(=O)C(C)(F)F)C4c4ccccc4)ccc32)cn1 (stereo in doubt) [Example 24, trans-2,2-difluoro-N-(1-(1-(6-methylpyridin-3-yl)-1H-indazol-5-yl)-5-oxo-2-phenylpyrrolidin-3-yl)propanamide] |  | 60 to 85
10 | Cc1cc(-n2ncc3cc(N4C(=O)C[C@H](NC(=O)C(C)(F)F)C4c4ccccc4)ccc32)ccn1 (stereo in doubt) [Example 25, trans-2,2-difluoro-N-(1-(1-(2-methylpyridin-4-yl)-1H-indazol-5-yl)-5-oxo-2-phenylpyrrolidin-3-yl)propanamide] |  | > 85
11 | COc1cc(-n2ncc3cc(N4C(=O)C[C@H](NC(=O)C(C)(F)F)C4c4ccccc4)ccc32)ccn1 (stereo in doubt) [Example 27, trans-2,2-difluoro-N-(1-(1-(2-methoxypyridin-4-yl)-1H-indazol-5-yl)-5-oxo-2-phenylpyrrolidin-3-yl)propanamide] |  | 60 to 85
12 | Cn1ccc(Cn2ncc3cc(N4C(=O)C[C@H](NC(=O)C(C)(F)F)C4c4ccccc4)ccc32)n1 (stereo in doubt) [Example 32, trans-2,2-difluoro-N-(1-(1-((1-methyl-1H-pyrazol-3-yl)methyl)-1H-indazol-5-yl)-5-oxo-2-phenylpyrrolidin-3-yl)propanamide] | 60 to 85 | 
13 | Cn1cc(Cn2ncc3cc(N4C(=O)C[C@H](NC(=O)C(C)(F)F)C4c4ccccc4)ccc32)ccc1=O (stereo in doubt) [Example 34, trans-2,2-difluoro-N-(1-(1-((1-methyl-6-oxo-1,6-dihydropyridin-3-yl)methyl)-1H-indazol-5-yl)-5-oxo-2-phenylpyrrolidin-3-yl)propanamide] | 40 to 60 | 
14 | CC(F)(F)C(=O)N[C@H]1CC(=O)N(c2ccc3c(cnn3C3CCN(C(=O)C4CC4)CC3)c2)C1c1ccccc1 (stereo in doubt) [Example 35, trans-2,2-difluoro-N-(1-(1-(1-(cyclopropanecarbonyl)piperidin-4-yl)-1H-indazol-5-yl)-5-oxo-2-phenylpyrrolidin-3-yl)propanamide] | 60 to 85 | 
15 | Cn1ccc(Cn2ncc3cc(N4C(=O)C[C@H](NC(=O)C(C)(F)F)C4c4ccccc4)ccc32)cc1=O (stereo in doubt) [Example 38, trans-2,2-difluoro-N-(1-(1-((1-methyl-2-oxo-1,2-dihydropyridin-4-yl)methyl)-1H-indazol-5-yl)-5-oxo-2-phenylpyrrolidin-3-yl)propanamide] | 60 to 85 | 
16 | COc1cc(Cn2ncc3cc(N4C(=O)C[C@H](NC(=O)C5CC5)C4c4ccccc4)ccc32)ccn1 (stereo in doubt) [Example 40, trans-N-(1-(1-((2-methoxypyridin-4-yl)methyl)-1H-indazol-5-yl)-5-oxo-2-phenylpyrrolidin-3-yl)cyclopropanecarboxamide] | 40 to 60 | 
17 | Cn1cc(-n2ncc3cc(N4C(=O)C[C@H](NC(=O)C(C)(F)F)C4c4ccccc4)ccc32)cn1 (stereo in doubt) [Example 46, N-(trans-1-(1-(1-methyl-1H-pyrazol-4-yl)-1H-indazol-5-yl)-5-oxo-2-phenylpyrrolidin-3-yl)-2,2-difluoropropanamide] |  | > 85
18 | CC(F)(F)C(=O)N[C@H]1CC(=O)N(c2ccc3c(cnn3-c3ncc(F)cn3)c2)C1c1ccccc1 (stereo in doubt) [Example 47, N-(trans-1-(1-(5-fluoropyrimidin-2-yl)-1H-indazol-5-yl)-5-oxo-2-phenylpyrrolidin-3-yl)-2,2-difluoropropanamide] |  | 60 to 85
19 | Cn1cc(-n2ncc3cc(N4C(=O)C[C@H](NC(=O)C(C)(F)F)[C@H]4c4cccc(Cl)c4)ccc32)ccc1=O [Example 1, N-((2R,3S)-2-(3-chlorophenyl)-1-(1-(1-methyl-6-oxo-1,6-dihydropyridin-3-yl)-1H-indazol-5-yl)-5-oxopyrrolidin-3-yl)-2,2-difluoropropanamide] | > 85 | 
